Measurements taken from publication PMC9137512 (Antibiotics, 2022).

Columns and labels:
[1] = Free concentration and protein binding in spiked human serum samples (Table S5); conditions: for fraction unbound: human, serum, PB
Procedure: (§1) Subsequently, samples were mixed for 10 s, stored in an ultrasonic bath for 10 min at 40 °C, then centrifuged at 8000× g for 5 min. Next, 100 µL of the resulting supernatant was further diluted with 500 µL water with 0.1% formic acid. […] Details are described in the Supplementary Materials (Figures S1–S3).
Table S5. […] In order to evaluate the
(a) Spiked human serum samples of 14 patients (8 critically ill and 6 non-critically ill) after calibration with sheep serum.
(b) Spiked human serum samples of 9 critically ill patients and 6 healthy volunteers after calibration with human serum.

clinical = conditions: for level at 192 h: iv
Procedure: The samples were subsequently analyzed according to the described method. […] The patients’ estimated glomerular filtration (eGFR) was calculated by the chronic kidney disease epidemiology collaboration equation (CKD–EPI). The AUC was calculated using the trapezoidal rule.
as §1
An aliquot of 20 µL was injected onto the HPLC–UV system equipped with a diode array detector (Nexera-I 3D plus, Shimadzu, Duisburg, Germany). Chromatographic analysis was performed using a reversed phase column Shim-pack XR-ODS III with 2.2 µm particle size (150 mm × 2 mm, Shimadzu, Duisburg, Germany) in combination with a column guard (Shim-pack GISS-H (G) C18, 3 µm; 10 mm × 2.1 mm, Shimadzu, Duisburg, Germany). Separation was performed using a gradient of 0.1% formic acid in acetonitrile and 0.1% formic acid in water with a flow rate of 0.35 mL/min. The autosampler and column were set at temperatures of 10 °C and 45 °C, respectively.

[2] = S5b, serum of 29 (healthy volunteer) spiked 50 mg/L, measured c 52.0 mg/L, calibration with human serum
[3] = S5b, serum of 29 (healthy volunteer) spiked 200 mg/L, measured c 207 mg/L, calibration with human serum
[4] = S5b, serum of patient 16 (critically ill) spiked 50 mg/L, measured c 56.7 mg/L, calibration with human serum
[5] = S5b, serum of patient 17 (critically ill) spiked 200 mg/L, measured c 222 mg/L, calibration with human serum
[6] = S5b, serum of patient 18 (critically ill) spiked 50 mg/L, measured c 57.6 mg/L, calibration with human serum
[7] = S5b, serum of patient 18 (critically ill) spiked 200 mg/L, measured c 242 mg/L, calibration with human serum
[8] = S5b, serum of patient 19 (critically ill) spiked 50 mg/L, measured c 51.1 mg/L, calibration with human serum
[9] = S5b, serum of patient 19 (critically ill) spiked 200 mg/L, measured c 197 mg/L, calibration with human serum
[10] = S5b, serum of patient 20 (critically ill) spiked 50 mg/L, measured c 54.5 mg/L, calibration with human serum
[11] = S5b, serum of patient 20 (critically ill) spiked 200 mg/L, measured c 254 mg/L, calibration with human serum
[12] = S5b, serum of patient 21 (critically ill) spiked 50 mg/L, measured c 55.2 mg/L, calibration with human serum
[13] = S5b, serum of patient 23 (critically ill) spiked 50 mg/L, measured c 56.0 mg/L, calibration with human serum

CN[C@H]1C(=O)N[C@@H]2Cc3ccc(cc3)Oc3cc4cc(c3O[C@@H]3O[C@H](C(=O)O)[C@@H](O)[C@H](O)[C@H]3NC(=O)CCCCCCCCC(C)C)Oc3ccc(cc3Cl)[C@@H](O)[C@@H]3NC(=O)[C@H](NC(=O)[C@@H]4NC(=O)[C@@H](NC2=O)c2cc(cc(O)c2Cl)Oc2cc1ccc2O)c1ccc(O)c(c1)-c1c(O[C@H]2O[C@H](CO)[C@@H](O)[C@H](O)[C@@H]2O)cc(O)cc1[C@@H](C(=O)NCCCN(C)C)NC3=O [dalbavancin, Dalbavancin]
fc ([1]; S5b, serum of 28 (healthy volunteer) spiked 200 mg/L, measured c 199 mg/L, calibration with human serum): 4.8 mg/L
PB [1, 2]: 97%
fc [1, 2]: 1.4 mg/L
PB [1, 3]: 98%
fc [1, 3]: 4.6 mg/L
fc ([1]; S5b, serum of patient 15 (critically ill) spiked 50 mg/L, measured c 56.7 mg/L, Nanosep SPE, HPLC-UV, calibration with human serum): 1.9 mg/L
fc ([1]; S5b, serum of patient 15 (critically ill) spiked 200 mg/L, measured c 239 mg/L, calibration with human serum): 9.8 mg/L
fc [1, 4]: 1.8 mg/L
fc ([1]; S5b, serum of patient 16 (critically ill) spiked 200 mg/L, measured c 233 mg/L, calibration with human serum): 12.1 mg/L
fc ([1]; S5b, serum of patient 17 (critically ill) spiked 50 mg/L, measured c 52.5 mg/L, calibration with human serum): < 1.0 mg/L
fc [1, 5]: 8.3 mg/L
fc [1, 6]: 1.3 mg/L
fc [1, 7]: 8.8 mg/L
fc [1, 8]: 1.2 mg/L
fc [1, 9]: 7.1 mg/L
fc [1, 10]: 1.7 mg/L
fc [1, 11]: 8.2 mg/L
fc [1, 12]: 1.6 mg/L
fc ([1]; S5b, serum of patient 21 (critically ill) spiked 200 mg/L, measured c 230 mg/L, calibration with human serum): 11.0 mg/L
fc ([1]; S5b, serum of patient 22 (critically ill) spiked 50 mg/L, measured c 59.8 mg/L, calibration with human serum): 2.5 mg/L
fc ([1]; S5b, serum of patient 22 (critically ill) spiked 200 mg/L, measured c 266 mg/L, calibration with human serum): 16.5 mg/L
fc [1, 13]: 2.2 mg/L
fc ([1]; S5b, serum of patient 23 (critically ill) spiked 200 mg/L, measured c 233 mg/L, calibration with human serum): 9.6 mg/L
fraction unbound [1]: 0.05
fraction unbound ([1]; S5a, serum of patient 1 (critically ill) spiked 50 mg/L, measured c 53.5 mg/L, calibration with sheep serum): 0.03
fraction unbound ([1]; S5a, serum of patient 1 (critically ill) spiked 200 mg/L, measured c 201 mg/L, calibration with sheep serum): 0.04
fraction unbound ([1]; S5a, serum of patient 2 (critically ill) spiked 50 mg/L, measured c 53.6 mg/L, calibration with sheep serum): 0.03
fraction unbound ([1]; S5a, serum of patient 3 (critically ill) spiked 200 mg/L, measured c 209 mg/L, calibration with sheep serum): 0.04
fraction unbound ([1]; S5a, serum of patient 4 (critically ill) spiked 50 mg/L, measured c 54.2 mg/L, calibration with sheep serum): 0.03
fraction unbound ([1]; S5a, serum of patient 4 (critically ill) spiked 200 mg/L, measured c 212 mg/L, calibration with sheep serum): 0.04
fraction unbound ([1]; S5a, serum of patient 5 (critically ill) spiked 50 mg/L, measured c 53.0 mg/L, calibration with sheep serum): 0.04
fraction unbound ([1]; S5a, serum of patient 6 (critically ill) spiked 50 mg/L, measured c 50.4 mg/L, calibration with sheep serum): 0.03
fraction unbound ([1]; S5a, serum of patient 8 (critically ill) spiked 50 mg/L, measured c 54.3 mg/L, calibration with sheep serum): 0.03
fraction unbound ([1]; S5a, serum of patient 8 (critically ill) spiked 200 mg/L, measured c 201 mg/L, calibration with sheep serum): 0.04
fraction unbound ([1]; S5a, serum of patient 9 (non-critically ill) spiked 200 mg/L, measured c 177 mg/L, calibration with sheep serum): 0.02
fraction unbound ([1]; S5a, serum of patient 10 (non-critically ill) spiked 200 mg/L, measured c 180 mg/L, calibration with sheep serum): 0.02
fraction unbound ([1]; S5a, serum of patient 11 (non-critically ill) spiked 200 mg/L, measured c 177 mg/L, calibration with sheep serum): 0.02
fraction unbound ([1]; S5a, serum of patient 12 (non-critically ill) spiked 200 mg/L, measured c 195 mg/L, calibration with sheep serum): 0.02
fraction unbound ([1]; S5a, serum of patient 13 (non-critically ill) spiked 50 mg/L, measured c 53.0 mg/L, calibration with sheep serum): 0.02
fraction unbound ([1]; S5a, serum of patient 13 (non-critically ill) spiked 200 mg/L, measured c 214 mg/L, calibration with sheep serum): 0.03
fraction unbound ([1]; S5a, serum of patient 14 (non-critically ill) spiked 50 mg/L, measured c 50.0 mg/L, calibration with sheep serum): 0.02
fraction unbound ([1]; S5a, serum of patient 14 (non-critically ill) spiked 200 mg/L, measured c 208 mg/L, calibration with sheep serum): 0.02
fraction unbound ([1]; S5b, serum of 24 (healthy volunteer) spiked 50 mg/L, measured c 46.1 mg/L, calibration with human serum): 0.03
fraction unbound ([1]; S5b, serum of 24 (healthy volunteer) spiked 200 mg/L, measured c 184 mg/L, calibration with human serum): 0.02
fraction unbound ([1]; S5b, serum of 25 (healthy volunteer) spiked 50 mg/L, measured c 45.8 mg/L, calibration with human serum): 0.03
fraction unbound ([1]; S5b, serum of 25 (healthy volunteer) spiked 200 mg/L, measured c 197 mg/L, calibration with human serum): 0.03
fraction unbound ([1]; S5b, serum of 26 (healthy volunteer) spiked 50 mg/L, measured c 52.6 mg/L, calibration with human serum): 0.03
fraction unbound ([1]; S5b, serum of patient 15 (critically ill) spiked 50 mg/L, measured c 56.7 mg/L, calibration with human serum): 0.03
fraction unbound [1, 4]: 0.04
fraction unbound [1, 5]: 0.04
fraction unbound [1, 6]: 0.03
fraction unbound [1, 7]: 0.04
fraction unbound [1, 8]: 0.02
fraction unbound [1, 9]: 0.04
fraction unbound [1, 10]: 0.03
fraction unbound [1, 11]: 0.04
fraction unbound [1, 12]: 0.03
fraction unbound [1, 13]: 0.04
Cmax (clinical; human, in vivo, 1500 mg, cmax(d1)): 278000 ng/mL
level at 192 h (clinical; human, in vivo, 1500 mg, cmin(d8)): 44900 ng/mL
level at 192 h (clinical; human, in vivo, trough concentrations on day 8 before redosing): 23000 to 44900 ng/mL
peak concentrations after the initial dosing (clinical; range of three cardiologic patients, total serum): 201 to 278 mg/L
